# Target: T1, GRK2 (Homo sapiens, UniProt P25098)
# T1 sequence (P25098 1-689): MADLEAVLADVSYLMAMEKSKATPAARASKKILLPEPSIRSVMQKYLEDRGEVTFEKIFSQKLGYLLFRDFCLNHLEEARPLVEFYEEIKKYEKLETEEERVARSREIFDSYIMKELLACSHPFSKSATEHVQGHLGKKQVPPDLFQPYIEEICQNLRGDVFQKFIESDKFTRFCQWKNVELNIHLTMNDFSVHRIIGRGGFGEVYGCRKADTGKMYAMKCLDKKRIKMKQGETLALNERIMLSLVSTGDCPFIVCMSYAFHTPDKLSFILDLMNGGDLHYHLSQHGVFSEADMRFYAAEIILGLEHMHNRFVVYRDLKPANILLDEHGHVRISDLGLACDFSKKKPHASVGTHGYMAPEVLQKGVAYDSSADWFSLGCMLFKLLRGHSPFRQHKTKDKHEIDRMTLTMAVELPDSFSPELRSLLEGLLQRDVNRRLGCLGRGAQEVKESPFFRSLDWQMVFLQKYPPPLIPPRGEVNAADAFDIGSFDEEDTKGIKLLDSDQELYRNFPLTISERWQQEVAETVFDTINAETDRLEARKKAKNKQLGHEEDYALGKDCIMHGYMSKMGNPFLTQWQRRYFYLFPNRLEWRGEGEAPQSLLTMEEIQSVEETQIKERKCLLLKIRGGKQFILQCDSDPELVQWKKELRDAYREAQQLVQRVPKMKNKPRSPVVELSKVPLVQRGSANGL
# Assay: biochemical
# Conditions: GRK2 IC50 (μM), 10 nM GRK2; 10 uM ATP
row,IC50 [µM],SMILES
1,4.11,"COc1cccc(C(C2CCS(=O)(=O)CC2)n2cnc3ccc(-c4cn[nH]c4)cc3c2=O)c1 (stereo not drawn) [Compound 22, 3-((1,1-Dioxidotetrahydro-2H-thiopyran-4-yl)(3-methoxyphenyl)methyl)-6-(1H-pyrazol-4-yl)quinazolin-4(3H)-one]"
2,0.446,"O=c1c2cc(-c3cn[nH]c3)ccc2ncn1Cc1cccc(-c2ncco2)c1 [Compound 28, 3-(3-(Oxazol-2-yl)benzyl)-6-(1H-pyrazol-4-yl)quinazolin-4(3H)-one]"
3,0.008,"CC(c1cccc(O)c1)n1cnc2ccc(-c3cn[nH]c3)cc2c1=O (stereo not drawn) [Compound 31, 3-[1-(3-Hydroxyphenyl)ethyl]-6-(1H-pyrazol-4-yl)quinazolin-4-one]"
4,0.065,"CC(=O)c1cccc(Cn2cnc3ccc(-c4cn[nH]c4)cc3c2=O)c1 [Compound 41, 3-[(3-Acetylphenyl)methyl]-6-(1H-pyrazol-4-yl)quinazolin-4-one]"
5,0.014,"NC1CCN(c2nc3ccc(-c4cn[nH]c4)cc3c(=O)n2Cc2cccc(C(=O)NCc3ccc(F)cc3)c2)C1 (stereo not drawn) [Compound 55, 3-[[2-(3-Aminopyrrolidin-1-yl)-4-oxo-6-(1H-pyrazol-4-yl)quinazolin-3-yl]methyl]-N-[(4-fluorophenyl)methyl]benzamide]"
6,1.46,"COc1cccc(Cn2cnc3ccc(-c4cn[nH]c(=O)c4)cc3c2=O)c1 [Compound 46, 3-[(3-Methoxyphenyl)methyl]-6-(6-oxo-1H-pyridazin-4-yl)quinazolin-4-one]"
7,0.157,"COc1cccc(C(CCO)n2cnc3ccc(-c4cn[nH]c4)cc3c2=O)c1 (stereo not drawn) [Compound 32, 3-(3-Hydroxy-1-(3-methoxyphenyl)propyl)-6-(1H-pyrazol-4-yl)quinazolin-4(3H)-one]"
8,1.63,"O=C(NCc1ccc(F)cc1)c1cccc(-n2cnc3ccc(-c4cn[nH]c4)cc3c2=O)c1 [Compound C1, N-[(4-Fluorophenyl)methyl]-3-[4-oxo-6-(1H-pyrazol-4-yl)quinazolin-3-yl]benzamide]"
9,0.075,"O=c1c2cc(-c3cn[nH]c3)ccc2ncn1Cc1cccc(Cl)c1 [Compound 50, 3-[(3-Chlorophenyl)methyl]-6-(1H-pyrazol-4-yl)quinazolin-4-one]"
10,0.025,"COc1cccc(C(CO)n2cnc3ccc(-c4cn[nH]c4)cc3c2=O)c1 (stereo not drawn) [Compound 42, 3-[2-Hydroxy-1-(3-methoxyphenyl)ethyl]-6-(1H-pyrazol-4-yl)quinazolin-4-one]"
11,4.34,"O=C(NCc1ccc(F)cc1F)c1ccc(Cn2cnc3ccc(-c4cn[nH]c4)cc3c2=O)cc1 [Compound C2, N-[(2,4-Difluorophenyl)methyl]-4-[[4-oxo-6-(1H-pyrazol-4-yl)quinazolin-3-yl]methyl]benzamide]"
12,0.122,"CCC(c1cccc(OC)c1)n1cnc2ccc(-c3cn[nH]c3)cc2c1=O (stereo not drawn) [Compound 35, 3-[1-(3-Methoxyphenyl)propyl]-6-(1H-pyrazol-4-yl)quinazolin-4-one]"
